The subject of test [1] is Rattus norvegicus. The test is described as follows: Antinociceptive activity in Sprague-Dawley rat model of chronic constriction injury-induced mono-neuropathic pain assessed as reduction in mechanical allodynia by measuring paw withdrawal threshold at 3 mg/kg, po administered as single dose and measured 30 mins to 24 hrs post dose by Von Frey's hairs assay. Type of test: functional, organism-based.

The subject of test [2] is Rattus norvegicus. In words: Antinociceptive activity in Sprague-Dawley rat model of CFA-induced chronic inflammatory pain assessed as reduction in mechanical allodynia by measuring paw withdrawal threshold at 3 mg/kg, po administered as single dose and measured 30 mins to 24 hrs post dose by Von Frey's hairs assay. Type of test: functional, organism-based.
The subject of test [3] is Rattus norvegicus. In words: Antinociceptive activity in Sprague-Dawley rat model of chronic constriction injury-induced mono-neuropathic pain assessed as reduction in mechanical allodynia by measuring paw withdrawal threshold at 20 mg/kg, po administered as single dose and measured 30 mins to 24 hrs post dose by Von Frey's hairs assay. Type of test: functional, organism-based.

The test system of test [4] is Rattus norvegicus. In words: Antinociceptive activity in Sprague-Dawley rat model of CFA-induced chronic inflammatory pain assessed as reduction in mechanical allodynia by measuring paw withdrawal threshold at 20 mg/kg, po administered as single dose and measured 30 mins to 24 hrs post dose by Von Frey's hairs assay. Type of test: functional, organism-based.
The test system of test [5] is Rattus norvegicus. The test is described as follows: Antinociceptive activity in Sprague-Dawley rat model of chronic constriction injury-induced mono-neuropathic pain assessed as reduction in mechanical allodynia by measuring paw withdrawal threshold at 50 mg/kg, po administered as single dose and measured 30 mins to 24 hrs post dose by Von Frey's hairs assay. It counts as functional, organism-based.

In test [6] the test system is Rattus norvegicus. The test is described as follows: Antinociceptive activity in Sprague-Dawley rat model of chronic constriction injury-induced mono-neuropathic pain assessed as reduction in mechanical allodynia by measuring paw withdrawal threshold at 500 mg/kg, po administered as single dose and measured 30 mins to 24 hrs post dose by Von Frey's hairs assay. It counts as functional, organism-based.

Test [7] relates to Rattus norvegicus. The test is described as follows: Antinociceptive activity in Sprague-Dawley rat model of CFA-induced chronic inflammatory pain assessed as reduction in mechanical allodynia by measuring paw withdrawal threshold at 50 mg/kg, po administered as single dose and measured 30 mins to 24 hrs post dose by Von Frey's hairs assay. Type of test: functional, organism-based.

Test [8] has as its system Rattus norvegicus. In words: Antinociceptive activity in Sprague-Dawley rat model of CFA-induced chronic inflammatory pain assessed as reduction in mechanical allodynia by measuring paw withdrawal threshold at 500 mg/kg, po administered as single dose and measured 30 mins to 24 hrs post dose by Von Frey's hairs assay. Type of test: functional, organism-based.
Test [9] deals with Rattus norvegicus. In words: Antinociceptive activity in Sprague-Dawley rat model of chronic constriction injury-induced mono-neuropathic pain assessed as reduction in mechanical allodynia by measuring paw withdrawal threshold at 2 mg/kg, po administered as single dose and measured 30 mins to 24 hrs post dose by Von Frey's hairs assay. Type of test: functional, organism-based.

Test [10] deals with Rattus norvegicus. In words: Antinociceptive activity in Sprague-Dawley rat model of CFA-induced chronic inflammatory pain assessed as reduction in mechanical allodynia by measuring paw withdrawal threshold at 2 mg/kg, po administered as single dose and measured 30 mins to 24 hrs post dose by Von Frey's hairs assay. Type of test: functional, organism-based.
The subject of test [11] is Rattus norvegicus. In words: Antinociceptive activity in Sprague-Dawley rat model of chronic constriction injury-induced mono-neuropathic pain assessed as reduction in mechanical allodynia by measuring paw withdrawal threshold at 60 mg/kg, po administered as single dose and measured 30 mins to 24 hrs post dose by Von Frey's hairs assay. Type of test: functional, organism-based.

The test system of test [12] is Rattus norvegicus. In words: Antinociceptive activity in Sprague-Dawley rat model of chronic constriction injury-induced mono-neuropathic pain assessed as reduction in mechanical allodynia by measuring paw withdrawal threshold at 200 mg/kg, po administered as single dose and measured 30 mins to 24 hrs post dose by Von Frey's hairs assay. Type of test: functional, organism-based.

Test [13] has as its system Rattus norvegicus. The test is described as follows: Antinociceptive activity in Sprague-Dawley rat model of CFA-induced chronic inflammatory pain assessed as reduction in mechanical allodynia by measuring paw withdrawal threshold at 60 mg/kg, po administered as single dose and measured 30 mins to 24 hrs post dose by Von Frey's hairs assay. It counts as functional, organism-based.

In test [14] the test system is Rattus norvegicus. The test is described as follows: Antinociceptive activity in Sprague-Dawley rat model of CFA-induced chronic inflammatory pain assessed as reduction in mechanical allodynia by measuring paw withdrawal threshold at 200 mg/kg, po administered as single dose and measured 30 mins to 24 hrs post dose by Von Frey's hairs assay. It counts as functional, organism-based.

In test [15] the target is 3',5'-cyclic-AMP phosphodiesterase 4D (Homo sapiens, UniProt Q08499). The test is described as follows: Inhibition of human PDE4D catalytic domain using [3H]-cAMP or [3H]-cGMP incubated for 30 mins by scintillation counting method.
3',5'-cyclic-AMP phosphodiesterase 4D, sequence (Q08499 whole entry, the tested form may be a part): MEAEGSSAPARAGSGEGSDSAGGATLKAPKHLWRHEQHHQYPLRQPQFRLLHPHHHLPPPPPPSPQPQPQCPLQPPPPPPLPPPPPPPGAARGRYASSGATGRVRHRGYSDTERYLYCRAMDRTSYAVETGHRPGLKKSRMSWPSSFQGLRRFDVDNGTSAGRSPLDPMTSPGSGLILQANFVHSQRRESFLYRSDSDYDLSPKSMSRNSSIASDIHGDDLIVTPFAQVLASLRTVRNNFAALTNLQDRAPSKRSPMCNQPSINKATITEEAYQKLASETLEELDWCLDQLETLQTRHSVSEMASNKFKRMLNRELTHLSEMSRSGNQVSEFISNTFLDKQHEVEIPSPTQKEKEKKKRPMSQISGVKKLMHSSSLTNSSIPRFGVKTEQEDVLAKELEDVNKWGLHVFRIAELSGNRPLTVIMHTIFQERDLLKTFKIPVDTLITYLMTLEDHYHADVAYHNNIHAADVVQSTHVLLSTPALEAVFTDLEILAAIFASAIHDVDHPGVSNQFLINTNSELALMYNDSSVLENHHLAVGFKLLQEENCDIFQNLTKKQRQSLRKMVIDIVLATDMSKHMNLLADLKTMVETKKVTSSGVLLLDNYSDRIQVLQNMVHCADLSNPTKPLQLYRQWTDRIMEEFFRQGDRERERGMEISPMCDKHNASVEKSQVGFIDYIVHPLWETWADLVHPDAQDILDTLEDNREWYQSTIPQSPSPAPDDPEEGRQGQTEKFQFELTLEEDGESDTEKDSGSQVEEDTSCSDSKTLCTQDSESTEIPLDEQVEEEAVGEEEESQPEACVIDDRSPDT
In test [16] the test system is Rattus norvegicus. The test is described as follows: Antinociceptive activity in Sprague-Dawley rat model of chronic constriction injury-induced mono-neuropathic pain assessed as reduction in mechanical allodynia by measuring paw withdrawal threshold at 1.8 mg/kg, po administered as single dose and measured 30 mins to 24 hrs post dose by Von Frey's hairs assay. It counts as functional, organism-based.

Test [17] has as its system Rattus norvegicus. The test is described as follows: Antinociceptive activity in Sprague-Dawley rat model of CFA-induced chronic inflammatory pain assessed as reduction in mechanical allodynia by measuring paw withdrawal threshold at 1.8 mg/kg, po administered as single dose and measured 30 mins to 24 hrs post dose by Von Frey's hairs assay. Type of test: functional, organism-based.

The test system of test [18] is Rattus norvegicus. The test is described as follows: Antinociceptive activity in Sprague-Dawley rat model of CFA-induced chronic inflammatory pain assessed as reduction in mechanical allodynia by measuring paw withdrawal threshold at 10 mg/kg, po administered as single dose and measured 30 mins to 24 hrs post dose by Von Frey's hairs assay. Type of test: functional, organism-based.

Structures are written as SMILES. Calls of active or inactive are those of the source.

A word on the IC50: it is the concentration at which inhibition is half-maximal. High values mean weaker potency, low ones greater potency.

`COc1ccc([C@]2(C#N)CC[C@@H](C(=O)O)CC2)cc1OC1CCCC1`: the result in [1] and in test [2] was Active.
Turning to `COc1cc(-c2ccc(=O)[nH]n2)ccc1OC(F)F`, the result in test [3] and in [4] was Active.
Consider `C[C@H](Cn1cnc2c(N)ncnc21)OCP(=O)(O)O`, for which the result in test [5], in test [6], in test [7] and in [8] was Active.
As for `Nc1ncnc2c1ncn2CCOCP(=O)(O)O`, the outcome in test [3], in test [9], in [4] and in test [10] was Active.
Regarding `COc1cc(Nc2c(C#N)cnc3cc(OCCCN4CCN(C)CC4)c(OC)cc23)c(Cl)cc1Cl`, the result in [11], in [12], in test [13] and in test [14] was Active.
In [15], `COc1cc2c(cc1OC)[C@@H]1CN(C)CC[C@@H]1N=C2c1ccc(NS(=O)(=O)c2ccc(C)cc2)cc1` returned an IC50 of 30 nM.
With `O=C(Nc1c(Cl)cncc1Cl)c1ccc(OC(F)F)c(OCC2CC2)c1`, the outcome in test [16] and in [17] was Active.
Take `CC(C)C[C@H](CN)CC(=O)O`: in test [11], the outcome was Active.
Take `COc1ccc2c(c1)c(CC(=O)O)c(C)n2C(=O)c1ccc(Cl)cc1`: the outcome in test [18] was Active.
